Measured values as given in patent US20070249545A1, “DIHYDROFOLATE REDUCTASE INHIBITION BY EPIGALLOCATECHIN GALLATE COMPOUNDS” (priority 2004, published 2007).
Where two headings read alike, the source gives them in different places.

Assays:
[1] = molecular target: S. maltophilia DHFR (Stenotrophomonas maltophilia, UniProt B2FPG1); type: biochemical; conditions: for Km: partially purified S. maltophilia DHFR, substrate
Method: For the DHFR extraction, S. maltophilia strain number 1, was inoculated onto fresh agar 24 h before using. Then, liquid medium was inoculated with the strain and these broth cultures were incubated at 37° C. and shaken at 100 cycles per min. Solid medium was MacConkey agar (Oxoid Ltd., Basingstoke, England). Liquid medium was Brilliant Green Bile 2% broth (Oxoid). Bacteria were grown to mid-log phase, harvested by centrifugation (1,600 rpm 30 min) and washed twice in 50 mM phosphate buffer (pH 7.0) followed each time by a new centrifugation (1,600 rpm 5 min). Cell lysis, centrifugation, and dialysis were carried out between 4 and 8° C. Fast protein liquid chromatography (FPLC) purification steps were performed at room temperature. […] After centrifugation at 36,000 rpm for 30 min to remove cell debris, the supernatant was filtered. This supernatant was brought to 40% saturation with solid ammonium sulfate under continuous stirring. After 1 h the solution was centrifuged at 35,000 rpm for 30 min and the pellet discarded. Additional ammonium sulfate was added to the clear supernatant to give 90% saturation and stirred for 1 h. After centrifugation, the precipitates were suspended in 2 ml of buffer B (10 mM potassium phosphate buffer, pH 7.4, 2 mM β-mercaptoethanol). Concentrated enzyme (2 ml samples) was loaded onto a […] gel-filtration column (Sephacryl S-75 16/60 Hi-Prep, Amersham Pharmacia Biotech Europe GmbH, Barcelona, Spain), equilibrated with buffer B and eluted at 0.5 ml/min. The active fractions were concentrated and stored at −80° C. until used.
Initial velocity inhibition experiments were carried out for the inhibition studies of S. maltophilia with TMP and EGCG. One substrate (NADPH) was held constant at saturating concentration while the other substrate (DHF) and the inhibitor (TMP or EGCG) were varied. To prevent the oxidation of EGCG the reaction mixture contained 1 mM N-acetylcysteine (Sigma). For MTX inhibition the slow development of […] inhibition was determined by continuously monitoring the disappearance of NADPH and DHF after initiation of the reaction by the addition of DHFR. Reaction mixtures contained buffer, NADPH (100 μM), DHF (20 μM), and various concentrations of MTX. The extent of recovery of enzymatic activity following inhibition induced by preincubation with DHFR inhibitors was determined as follows. DHFR was preincubated for 30 min at 25° C. in the buffer mixture containing MTX, TMP or EGCG. An aliquot of the incubation mixture was then diluted 500-fold into a reaction mixture containing buffer mixture, NADPH (100 μM), and DHF (20 μM). Recovery of enzyme activity was followed by continuous monitoring at 340 nm.
Provided that the concentration of free inhibitor is not substantially altered by the formation of an enzyme-NADPH-inhibitor complex, the progress curve for the inhibition in the presence of saturating NADPH can be described by Eqn. 1 (as above): P=vst+(v0−vs)(1−exp(−kobst))/kobs • where vs, v0 and kobs represent the steady-state velocity, initial velocity and apparent first-order rate constant, respectively. The apparent first-order rate constant is related to the inhibitor concentration by Eqn. 2, where Ki denotes the dissociation constants for the initial binding of MTX to the enzyme-NADPH complex. [formula]

[2] = molecular target: T1, bovine liver DHFR (Bos taurus, UniProt P00376); test: Kinetic analysis of inhibition of bovine liver DHFR; type: biochemical
T1 construct: from tissue; host or cells: bovine liver
T1 sequence (P00376 1-187): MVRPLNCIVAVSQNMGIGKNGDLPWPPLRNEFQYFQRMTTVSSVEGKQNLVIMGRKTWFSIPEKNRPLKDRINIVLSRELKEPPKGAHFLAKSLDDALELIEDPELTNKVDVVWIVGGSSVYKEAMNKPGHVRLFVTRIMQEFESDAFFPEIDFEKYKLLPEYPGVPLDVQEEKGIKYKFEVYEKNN
Method: The activity of DHFR was determined at 25° C. by following the decrease of NADPH and DHF by absorbance measurements at 340 nm (ε=11,800 M^−1 cm^−1) by using a Perkin-Elmer Lambda-2 spectrophotometer with cuvettes of 1.0 cm light-path.
Experiments were performed at pH 7.58 and 25° C. in a buffer containing 2-(N-morpholino)ethanesulfonic acid (MES, 25 mM), sodium acetate (25 mM), tris(hydroxymethyl)aminomethane (Tris 50 mM), and NaCl (100 mM). To prevent the oxidation of catechins, the reaction mixture contained 1 mM ascorbic acid. The pH of the reaction was measured before and after of the experiment. The assays were started by the addition of enzyme. In the absence of the enzyme, the rate of change of absorbance was negligible. […]
Progress curves for the slow, tight-binding inhibition of bovine liver DHFR by EGCG were determined by continuously monitoring the disappearance of NADPH and DHF after initiation of the reaction by the addition of 3.3 nM enzyme. Reaction mixtures contained buffer, NADPH (100 μM), DHF (20 μM) and EGCG. Assuming that the concentration of free inhibitor is not substantially altered by the formation of an enzyme-NADPH-inhibitor complex, the progress curve for the inhibition in the presence of saturating NADPH is described by Eqn. (1): P=vst+(v0−vs)(1−exp(−k′t))/k′
where vs, v0 and k′ represent the steady-state velocity, initial velocity and apparent first-order rate constant, respectively.
The values of k′ at different EGCG concentrations were obtained by non-linear regression analysis of the progress curves. KI and KI* denote the respective dissociation constants for the initial and equilibrium binding of inhibitors to the enzyme-NADPH complex (FIG. 5).

[3] = molecular target: T2, recombinant human DHFR (rHDHFR) (Homo sapiens, UniProt P00374); test: Inhibition of human DHFR by tea catechins; type: biochemical
T2 sequence (P00374 1-187): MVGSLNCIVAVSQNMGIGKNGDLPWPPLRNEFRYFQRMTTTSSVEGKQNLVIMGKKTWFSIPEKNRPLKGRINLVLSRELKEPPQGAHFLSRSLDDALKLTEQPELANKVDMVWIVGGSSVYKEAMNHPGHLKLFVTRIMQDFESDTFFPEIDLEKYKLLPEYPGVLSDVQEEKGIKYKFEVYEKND

[4] = system: L1210 cells; test: EGCG cytotoxicity / growth of L1210 cells; type: cell-based, mouse; conditions: L1210; hypoxanthine-thymidine (HT) medium; EGCG 20 μM
Method: L1210 cells were plated at a density of 10,000 cells/ml in 96-well plates with a “standard folate” RPMI 1640 medium supplemented with 10% FCS. Reversion experiments were carried out in an HT medium and/or by adding 50 μM ascorbic acid (AA). Cell injury was evaluated by a calorimetric assay for mitochondrial function using the MTT test.^29
The effect of different EGCG concentrations on L1210 cell growth after 29 h of treatment at two different folic acid concentrations was determined. The cells were previously adapted over a period of 2-3 days to grow in folate-free RPMI 1640 medium supplemented with 10% dialyzed FCS and 2 mM glutamine. This medium is subsequently referred to as LF (low folate). For the cytotoxicity assay, the cells were grown in LF media supplemented with folic acid (3 μM or 300 nM). Treatments were carried out in triplicate, and each experiment performed at least twice. Cell growth was determined by two different methods, Coulter counter Z2 and hemocytometer (FIG. 7). IC50 values were determined at each folic acid concentration added to the medium.
The growth-inhibitory effects of 10 μM EGCG at various folic acid concentrations were determined at two different time intervals. L1210 cells were cultured in a LF medium supplemented with the corresponding folic acid concentration. The data were obtained by using a Coulter counter and hemocytometer and expressed assuming a zero percentage of growth inhibition for untreated control (FIG. 8). Cells were maintained in the corresponding medium with 100 μg/ml of penicillin and streptomycin at 37° C. in a humid 7.5% CO2, […] environment for all the experiments.

[5] = system: p16; test: p16 methylation status in Caco-2 cells; conditions: EGCG 20 μM, 7-days treatment

S. maltophilia DHFR, sequence (B2FPG1 entry or part of it): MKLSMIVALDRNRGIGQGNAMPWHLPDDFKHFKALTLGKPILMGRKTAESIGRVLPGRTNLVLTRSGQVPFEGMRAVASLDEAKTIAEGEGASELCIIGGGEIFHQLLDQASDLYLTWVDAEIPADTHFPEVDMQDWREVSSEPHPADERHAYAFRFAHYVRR

## Nc1nc(=O)c2c([nH]1)NCC(CNc1ccc(C(=O)N[C@@H](CCC(=O)O)C(=O)O)cc1)=N2 [DHF, 7,8-dihydrofolate]
[1]; pH 8.0
  Km: 1.8 µM

## O=C(O[C@@H]1Cc2c(O)cc(O)cc2O[C@@H]1c1ccc(O)c(O)c1)c1cc(O)c(O)c(O)c1 [ECG, (−)-epicatechin gallate]
[2]
  inhibition of DHFR activity: potent inhibitor
  k5: 0.11 min⁻¹
  k5/k6: 7.1 ratio
  k6: 0.015 min⁻¹
[2]; KI*, equilibrium binding to enzyme-NADPH complex
  Ki: 6.55 nM
[2]; KI, initial binding to enzyme-NADPH complex, pH 7.58, 25° C.
  Ki: 51.3 nM
[3]
  inhibition of rHDHFR activity: potent inhibitors

## Oc1cc(O)c2c(c1)O[C@H](c1cc(O)c(O)c(O)c1)[C@H](O)C2 [EGC, (−)-epigallocatechin, reference compound]
[2]
  inhibition of DHFR activity: did not inhibit
[3]
  inhibition of rHDHFR activity: did not inhibit

## NC(=O)C1=CN([C@@H]2O[C@H](COP(=O)(O)OP(=O)(O)OC[C@H]3O[C@@H](n4cnc5c(N)ncnc54)[C@H](OP(=O)(O)O)[C@@H]3O)[C@@H](O)[C@H]2O)C=CC1 [NADPH]
[1]; pH 8.0
  Km: 12 µM

## CN(Cc1cnc2nc(N)nc(N)c2n1)c1ccc(C(=O)N[C@@H](CCC(=O)O)C(=O)O)cc1 [methotrexate]
[1]; S. maltophilia DHFR
  Type of inhibition observed: competitive (slow-
[1]; S. maltophilia DHFR, calculated by using Eqn. 3
  k1: 6.17e+07 M⁻¹ s⁻¹
[1]; S. maltophilia DHFR, pH 8.0
  rate constant k2: 0.0011 s⁻¹
[4]
  growth inhibition in HT medium: greatly attenuated
[5]
  p16 methylation pattern: reversal of hypermethylation was observed

## COc1cc(Cc2cnc(N)nc2N)cc(OC)c1OC [trimethoprim]
[1]
  Ki: 4690 nM
  Type of inhibition observed: competitive (reversible)
  effect of preincubation of the enzyme with inhibitor: did not produce any measurable inhibition
